Measured values from ChEMBL document CHEMBL3632591, “Discovery and structural diversity of the hepatitis C virus NS3/4A serine protease inhibitor series leading to clinical candidate IDX320” (Bioorg Med Chem Lett, 2015).

Assays:
[1] = AUC (infinity) in Sprague-Dawley rat at 2 mg/kg, iv administered as single dose; assay type: ADME, organism-based; design: dose 2 mg/kg, route intravenous, time infinity; details: in vivo
Rhesus monkey [2] = assay: Toxicity in monkey assessed as effect on respiratory system at 250 mg/kg, po administered as single dose; assay type: organism-based, Macaca mulatta; details: in vivo
[3] = Oral bioavailability in Sprague-Dawley rat at 10 mg/kg administered as single dose; assay type: ADME, organism-based; details: in vivo
[4] = Inhibition of cellular protease (unknown origin); details: Homo sapiens
[5] = target: T1, UDP-glucuronosyltransferase 1A1 (Homo sapiens, UniProt P22309); assay: Inhibition of human UGT1A1; assay type: ADME
T1 sequence (P22309 whole entry): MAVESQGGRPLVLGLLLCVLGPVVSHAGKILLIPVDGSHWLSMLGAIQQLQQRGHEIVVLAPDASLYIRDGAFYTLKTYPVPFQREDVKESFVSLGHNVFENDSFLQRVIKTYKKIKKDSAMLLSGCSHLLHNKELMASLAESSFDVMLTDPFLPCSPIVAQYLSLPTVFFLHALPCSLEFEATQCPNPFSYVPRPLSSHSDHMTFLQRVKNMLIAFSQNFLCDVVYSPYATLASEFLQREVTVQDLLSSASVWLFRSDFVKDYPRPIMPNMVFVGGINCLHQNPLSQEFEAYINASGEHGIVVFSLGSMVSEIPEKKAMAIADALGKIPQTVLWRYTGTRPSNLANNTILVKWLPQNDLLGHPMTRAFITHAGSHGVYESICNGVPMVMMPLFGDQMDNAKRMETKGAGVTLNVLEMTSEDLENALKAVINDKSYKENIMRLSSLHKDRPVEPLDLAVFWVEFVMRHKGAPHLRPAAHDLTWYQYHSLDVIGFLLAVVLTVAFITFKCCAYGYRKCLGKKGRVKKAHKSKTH

[6] = Plasma concentration in CD-1 mouse at 2 mg/kg, po administered as single dose measured after 24 hrs; assay type: ADME, organism-based
[7] = Inhibition of HCV genotype 4a NS3/4A protease; design: species or system Hepatitis C virus subtype 4a
[8] = AUC (0 to 24 hrs) in CD-1 mouse at 2 mg/kg, iv administered as single dose measured after 24 hrs; assay type: ADME, organism-based; design: time < 24 hr, dose 2 mg/kg, route intravenous; details: in vivo
[9] = Clearance in CD-1 mouse at 2 mg/kg, iv administered as single dose measured after 24 hrs; assay type: ADME, organism-based; details: in vivo
[10] = Volume of distribution in CD-1 mouse at 2 mg/kg, iv administered as single dose measured after 24 hrs; assay type: ADME, organism-based; details: in vivo
Mus musculus [11] = assay: Toxicity in mouse assessed as effect on central nervous system at 250 mg/kg, po administered as single dose; assay type: organism-based; details: in vivo
[12] = Tmax in Cynomolgus monkey at 2 mg/kg, po administered as single dose; assay type: ADME, organism-based, Macaca fascicularis; details: in vivo
[13] = Cytotoxicity against rat hepatocytes; assay type: cell-based, Hepatocyte
[14] = Cmax in Cynomolgus monkey at 2 mg/kg, po administered as single dose; assay type: ADME, organism-based, Macaca fascicularis; design: dose 2 mg/kg, route oral; details: in vivo
[15] = Efflux ratio of permeability in human Caco2 cells; assay type: ADME, cell-based; details: Caco-2
Rhesus monkey [16] = assay: Toxicity in monkey assessed as effect on cardiovascular system at 250 mg/kg, po administered as single dose; assay type: organism-based, Macaca mulatta; details: in vivo
[17] = Plasma concentration in CD-1 mouse at 2 mg/kg, iv administered as single dose measured after 24 hrs; assay type: ADME, organism-based
[18] = Clearance in Cynomolgus monkey at 2 mg/kg, iv administered as single dose; assay type: ADME, organism-based, Macaca fascicularis; details: in vivo
[19] = AUC (infinity) in Cynomolgus monkey at 2 mg/kg, iv administered as single dose; assay type: ADME, organism-based, Macaca fascicularis; design: dose 2 mg/kg, route intravenous, time infinity; details: in vivo
[20] = Half life in Sprague-Dawley rat at 10 mg/kg, po administered as single dose; assay type: ADME, organism-based; details: in vivo
Mus musculus [21] = assay: Toxicity in mouse assessed as effect on renal function at 250 mg/kg, po administered as single dose; assay type: organism-based; details: in vivo
[22] = Inhibition of HCV genotype 1a NS3/4A protease; design: species or system Hepatitis C virus subtype 1a
[23] = Inhibition of recombinant full length HCV genotype 1b NS3/4A protease by FRET assay; design: species or system Hepatitis C virus subtype 1b
[24] = Plasma concentration in Cynomolgus monkey at 2 mg/kg, po administered as single dose measured after 24 hrs; assay type: ADME, organism-based, Macaca fascicularis
[25] = Inhibition of HCV genotype 3a NS3/4A protease; design: species or system Hepatitis C virus subtype 3a
[26] = Tmax in Sprague-Dawley rat at 2 mg/kg, iv administered as single dose; assay type: ADME, organism-based; details: in vivo
[27] = Oral bioavailability in CD-1 mouse at 2 mg/kg administered as single dose; assay type: ADME, organism-based; details: in vivo
[28] = Half life in Sprague-Dawley rat at 2 mg/kg, iv administered as single dose; assay type: ADME, organism-based; details: in vivo
Hepatitis C virus = assay: Antiviral activity against HCV genotype 1b infected in human HuH7 cells after 3 days by luciferase assay; assay type: functional, organism-based, Hepacivirus hominis; details: Huh-7, 72 h
[29] = AUCt in Sprague-Dawley rat at 10 mg/kg, po administered as single dose; assay type: ADME, organism-based; details: in vivo
[30] = Half life in Cynomolgus monkey at 2 mg/kg, iv administered as single dose; assay type: ADME, organism-based, Macaca fascicularis; details: in vivo
[31] = Cytotoxicity against human HuH7 cells by colorimetric proliferation assay; assay type: cell-based, Huh-7
[32] = Ratio of drug level in Sprague-Dawley rat liver to plasma at 10 mg/kg, po measured at 24 hrs; assay type: ADME, organism-based; details: liver and plasma
[33] = Cmax in Sprague-Dawley rat plasma at 2 mg/kg, iv administered as single dose measured after 8 hrs; assay type: ADME, organism-based; design: dose 2 mg/kg, route intravenous
Cytochrome P450 2D6 = Cytochrome P450 2D6 (Homo sapiens, UniProt P10635); assay: Inhibition of human CYP2D6; assay type: ADME
Chain of Cytochrome P450 2D6 (P10635 whole entry): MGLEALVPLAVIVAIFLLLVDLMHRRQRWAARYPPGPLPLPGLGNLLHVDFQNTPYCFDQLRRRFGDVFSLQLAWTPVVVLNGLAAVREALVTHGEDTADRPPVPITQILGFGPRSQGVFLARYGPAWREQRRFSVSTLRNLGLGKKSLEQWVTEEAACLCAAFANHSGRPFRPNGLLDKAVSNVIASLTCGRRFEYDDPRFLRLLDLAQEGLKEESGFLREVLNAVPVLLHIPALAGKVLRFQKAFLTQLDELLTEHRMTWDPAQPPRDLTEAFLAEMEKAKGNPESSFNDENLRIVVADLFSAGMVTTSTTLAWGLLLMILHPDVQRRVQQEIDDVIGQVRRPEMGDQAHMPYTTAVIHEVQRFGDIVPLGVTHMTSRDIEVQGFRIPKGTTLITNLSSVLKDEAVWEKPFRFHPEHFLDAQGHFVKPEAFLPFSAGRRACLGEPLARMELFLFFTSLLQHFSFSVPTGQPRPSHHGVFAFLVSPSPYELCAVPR

[34] = AUC (0 to 24 hrs) in CD-1 mouse at 2 mg/kg, po administered as single dose; assay type: ADME, organism-based; design: dose 2 mg/kg, time < 24 hr, route oral; details: in vivo
[35] = Inhibition of HCV genotype 2a NS3/4A protease; design: species or system Hepatitis C virus subtype 2a
[36] = Plasma concentration in Cynomolgus monkey at 2 mg/kg, iv administered as single dose measured after 24 hrs; assay type: ADME, organism-based, Macaca fascicularis
[37] = Apparent permeability across human Caco2 cells; assay type: ADME, cell-based; details: Caco-2
Mus musculus [38] = assay: Toxicity in mouse assessed as effect on gastrointestinal motility at 250 mg/kg, po administered as single dose; assay type: organism-based; details: in vivo
[39] = AUC (infinity) in Cynomolgus monkey at 2 mg/kg, po administered as single dose; assay type: ADME, organism-based, Macaca fascicularis; design: dose 2 mg/kg, route oral, time infinity; details: in vivo

COc1ccc2c(O[C@H]3CCN4C(=O)N(C)CCCCC=C[C@@H]5C[C@@]5(C(=O)NS(=O)(=O)C5(C)CC5)NC(=O)[C@@H]4C3)cc(-c3nc(C(F)(F)F)cs3)nc2c1C
AUC(0-inf) [1]: 1770 ng·h/mL
Activity (Rhesus monkey [2]): Non-toxic
bioavailability [3]: 45%
IC50 [4]: > 10000 nM
IC50 [5]: ≥ 10000 nM
concentration at 24 h [6]: 1.5 ng/mL
IC50 [7]: 0.8 nM
AUC(0-t) at 24 h [8]: 4060 ng·h/mL
clearance [9]: 8 mL/min/kg
Vd [10]: 4.4 L/kg
Activity (Mus musculus [11]): Non-toxic
Tmax [12]: 1 h
CC50 [13]: > 10000 nM
Cmax [14]: 1030 ng/mL
efflux ratio [15]: 2.7
Activity (Rhesus monkey [16]): Non-toxic
concentration at 24 h [17]: 7.9 ng/mL
clearance [18]: 3.83 mL/min/kg
AUC(0-inf) [19]: 9580 ng·h/mL
half-life [20]: 3.6 h
Activity (Mus musculus [21]): Non-toxic
IC50 [22]: 0.8 nM
IC50 [23]: 0.5 nM
concentration at 24 h [24]: 81 ng/mL
IC50 [25]: 23 nM
Tmax [26]: 4.8 min
bioavailability [27]: 34.7%
half-life [28]: 1.5 h
EC50 (Hepatitis C virus): 0.7 nM
AUC(0-t) [29]: 3920 ng·h/mL
half-life [30]: 10.3 h
CC50 [31]: 52800 nM
Kp at 24 h [32]: 61.7
Cmax [33]: 2060 ng/mL
IC50 (Cytochrome P450 2D6): ≥ 10000 nM
AUC(0-t) at 24 h [34]: 1410 ng·h/mL
IC50 [35]: 0.8 nM
concentration at 24 h [36]: 66 ng/mL
Papp [37]: 1.8 ×10⁻⁶ cm/s
Activity (Mus musculus [38]): Non-toxic
AUC(0-inf) [39]: 8920 ng·h/mL
